Measurements taken from paper PMC5028351, “Natural flavonoids silymarin and quercetin improve the brain distribution of co-administered P-gp substrate drugs” (SpringerPlus, 2016).

Assays:
P-gp [1] = tested on: P-gp; set-up: method as in O’Brien et al. 2013; conditions: P-gp inhibition using cyclosporin and verapamil; ref O’Brien et al. 2013; cited from earlier work
P-gp [2] = assay: In vivo P-gp inhibition study: plasma and brain pharmacokinetics of i.v. quinidine in mice with and without inhibitor pre-treatment; conditions: for AUC(0-inf) / AUC(0-t) / Cmax / Tmax: male, C57, mouse, iv, 5 mg/kg; for Effect of pre-treatment on plasma profile of quinidine: quinidine 5 mg/kg i.v., inhibitor i.v. 0.5 h pre-treatment
Procedure: Male C57 mice weighing 30–35 g and of 6–8 weeks old were taken and the animal experiments were conducted in the animal research facility of Syngene International limited, Bengaluru, India. […] Animal study protocols were approved by the Syngene International organisational animal ethics committee, Bengaluru, India.
Dose volumes (5 mL/kg) of drugs were administered by i.v. route via tail vein injection. […]
Mice were divided into three groups (n = 3–4). […] Blood and brain samples were collected at 0.5, 1, 3, 5 and 7 h post dose of probe substrate. Blood was collected from mice under mild anaesthesia via tail vein and collected blood was centrifuged at 5000 rpm to separate plasma.
After sacrificing the mice at different time points, brain was collected homogenised at 5× concentration with phosphate buffered saline using Bullet blender. Fifty µL of brain homogenate or plasma and 200 µL of internal standard (IS) in vehicle (70 % acetonitrile and 30 % water) were mixed in a 96-well hydrophilic solvinert plate. The acetonitrile mixtures were vortexed and centrifuged at 10,000 rpm for 10 min. Supernatant was collected in a 96 well plate and analysed by liquid chromatography with mass spectroscopy (LC-MS, QTRAP ABSCIEX API 4000).
Analysis was carried out using 4000 QTRAP LC/MS/MS system with triple Quadruple mass spectrometer (AB SCIEX) equipped with an electron spray ionisation (ESI). The mass spectrometer was operated in the ESI positive ion mode and detection of ions were performed in the multiple reaction monitoring (MRM) mode.

P-gp [3] = molecular target: T1, P-gp (Homo sapiens, UniProt P08183); conditions: digoxin 10 µM alone
T1 sequence (P08183 whole entry): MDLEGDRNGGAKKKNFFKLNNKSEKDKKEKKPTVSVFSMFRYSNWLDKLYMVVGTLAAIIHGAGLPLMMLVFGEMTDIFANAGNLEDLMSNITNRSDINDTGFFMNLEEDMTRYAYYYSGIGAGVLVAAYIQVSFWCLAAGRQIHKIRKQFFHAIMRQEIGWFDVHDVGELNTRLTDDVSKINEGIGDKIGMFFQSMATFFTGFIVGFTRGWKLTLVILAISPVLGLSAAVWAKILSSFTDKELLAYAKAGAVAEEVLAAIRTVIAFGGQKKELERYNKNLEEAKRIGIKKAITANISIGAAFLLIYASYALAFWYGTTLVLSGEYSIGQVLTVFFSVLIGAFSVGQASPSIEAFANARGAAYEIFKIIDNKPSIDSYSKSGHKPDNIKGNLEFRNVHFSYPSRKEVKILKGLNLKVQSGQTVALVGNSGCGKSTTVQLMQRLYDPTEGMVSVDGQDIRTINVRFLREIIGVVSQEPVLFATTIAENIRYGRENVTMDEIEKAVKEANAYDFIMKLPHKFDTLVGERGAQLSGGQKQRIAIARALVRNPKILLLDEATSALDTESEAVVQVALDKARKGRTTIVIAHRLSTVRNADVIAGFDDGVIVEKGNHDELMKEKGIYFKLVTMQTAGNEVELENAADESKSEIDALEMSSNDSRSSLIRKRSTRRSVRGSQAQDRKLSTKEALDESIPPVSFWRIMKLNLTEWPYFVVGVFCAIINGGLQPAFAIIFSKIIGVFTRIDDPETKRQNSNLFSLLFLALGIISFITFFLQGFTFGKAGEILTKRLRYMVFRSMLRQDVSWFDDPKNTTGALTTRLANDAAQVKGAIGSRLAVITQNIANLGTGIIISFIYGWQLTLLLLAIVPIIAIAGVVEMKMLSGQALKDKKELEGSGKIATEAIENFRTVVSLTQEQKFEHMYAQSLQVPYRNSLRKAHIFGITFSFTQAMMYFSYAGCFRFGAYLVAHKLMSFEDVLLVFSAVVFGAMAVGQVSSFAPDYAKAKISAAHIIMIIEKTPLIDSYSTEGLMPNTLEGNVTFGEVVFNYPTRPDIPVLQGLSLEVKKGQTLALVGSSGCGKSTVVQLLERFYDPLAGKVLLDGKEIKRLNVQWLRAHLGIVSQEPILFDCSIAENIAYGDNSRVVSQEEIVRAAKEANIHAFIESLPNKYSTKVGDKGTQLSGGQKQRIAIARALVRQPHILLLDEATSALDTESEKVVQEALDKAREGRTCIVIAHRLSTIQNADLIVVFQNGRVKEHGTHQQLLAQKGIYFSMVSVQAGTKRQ
Procedure: (§1) Caco-2 cells were seeded in transwell poly carbonate inserts (6 well, 0.4 µm pore size, Corning co-star Co.) at 70,000 cells per insert on the day of seeding. Cells were cultured in DMEM supplemented with 10 % fetal bovine serum and 1 % non essential amino acids (Gibco). All the cells were incubated at 37 °C in a humidified atmosphere with 5 % CO2 and 95 % air. For uptake studies, Caco-2 cells were seeded on to 0.7 cm^2 dishes at a density of approximately 70,000 cells per dish and used for experiment.

P-gp [4] = molecular target: T1, P-gp; assay: in vitro; conditions: Caco-2
Procedure: as §1

Caco-2 = conditions: ref Collett et al. 2004; cited from earlier work
P-gp [5] = tested on: P-gp; set-up: method as in Van Asperen et al. 1996; conditions: ref Van Asperen et al. 1996; cited from earlier work

Q: Which “Increase in brain concentration” value (P-gp [1]) does the source give for CN(C)CCC[C@@]1(c2ccc(F)cc2)OCc2cc(C#N)ccc21 [Escitalopram] here?
A: threefold

Q: Which AUC(0-inf) (P-gp [2]; brain) does the source give for C=C[C@H]1C[N@@]2CC[C@H]1C[C@@H]2[C@@H](O)c1ccnc2ccc(OC)cc12 [Quinidine] here?
A: 251 ng·h/mL

Q: And the AUC(0-t) (P-gp [2]; brain)?
A: 211 ng·h/mL

Q: And the Cmax (P-gp [2]; brain)?
A: 115 ng/mL

Q: What about the Tmax (P-gp [2]; brain) of the same compound?
A: 48 min

Q: What about the AUC(0-inf) (P-gp [2]; plasma) of the same compound?
A: 513 ng·h/mL

Q: And the AUC(0-t) (P-gp [2]; plasma)?
A: 496 ng·h/mL

Q: What about the Cmax (P-gp [2]; plasma) of the same compound?
A: 209 ng/mL

Q: And the Tmax (P-gp [2]; plasma)?
A: 39.6 min

Q: For COc1cc2c(cc1OC)CN(CCc1ccc(NC(=O)c3cccc4c(=O)c5cccc(OC)c5[nH]c34)cc1)CC2 [Elacridar], which “Effect of pre-treatment on plasma profile of quinidine” value (P-gp [2]; mice) is on record?
A: no significant difference

Q: Which results are given for O=c1c(O)c(-c2ccc(O)c(O)c2)oc2cc(O)cc(O)c12 [Quercetin]?
A: Increase in (AUC) 0–7h B/P of quinidine (P-gp [2]; mice, inhibitor pre-treatment): twofold; Effect of pre-treatment on plasma profile of quinidine (P-gp [2]; mice): no significant difference

Q: Which “AP-BL transport of digoxin” value (P-gp [3]; Caco-2 (Table 3)) does the source give for C[C@H]1O[C@@H](O[C@H]2[C@@H](O)C[C@H](O[C@H]3[C@@H](O)C[C@H](O[C@H]4CC[C@@]5(C)[C@H](CC[C@@H]6[C@@H]5C[C@@H](O)[C@]5(C)[C@@H](C7=CC(=O)OC7)CC[C@]65O)C4)O[C@@H]3C)O[C@@H]2C)C[C@H](O)[C@@H]1O [Digoxin] here?
A: 5.18 10^−8 cm/s

Q: And the “BL-AP transport of digoxin” value (P-gp [3]; Caco-2 (Table 3))?
A: 1.80 ×10⁻⁶ cm/s

Q: What about the “AP-BL transport (PappA–B) of digoxin” value (P-gp [3]; Caco-2 monolayers) of the same compound?
A: 0.0518 ×10⁻⁶ cm/s

Q: And the “BL-AP transport (PappB–A) of digoxin” value (P-gp [3]; Caco-2 monolayers)?
A: 1.8 ×10⁻⁶ cm/s

Q: What about the Papp A→B at 10 µM (P-gp [4]) of the same compound?
A: 0.0518 ×10⁻⁶ cm/s

Q: What about the Papp B→A at 10 µM (P-gp [4]) of the same compound?
A: 1.8 ×10⁻⁶ cm/s

Q: And the “Caco-2 Papp” value (Caco-2)?
A: 1.1 ×10⁻⁶ cm/s

Q: For CC[C@]1(O)C[C@@H]2CN(CCc3c([nH]c4ccccc34)[C@@](C(=O)OC)(c3cc4c(cc3OC)N(C)[C@H]3[C@@](O)(C(=O)OC)[C@H](OC(C)=O)[C@]5(CC)C=CCN6CC[C@]43[C@@H]65)C2)C1 [vinblastine], which “Penetration into the brain, P-gp knockout mice compared with wild type control” value (P-gp [5]) is on record?
A: 7–46 folds
